Test results: paper PMC7565984, “A Phosphorylation-Induced Switch in the Nuclear Localization Sequence of the Intrinsically Disordered NUPR1 Hampers Binding to Importin” (Biomolecules, 2020)
Where two headings read alike, the source gives them in different places. Where a SMILES comes first, the peptide text is derived from it. [ ]: non-standard residue; d: D form. pT = C[C@@H](OP(=O)(O)O)[C@H](N)C(=O)O

B1: intact NUPR1 (full-length, 82 residues) (natural protein, UniProt O60356 1-82, looked up)
chain: MATFPPATSAPQQPPGPEDEDSSLDESDLYSLAHSYLGGGGRKGRTKREAAANTNRPSPGGHERKLVTKLQNSERKKRGARR
notes: NUPR1, UniProtKB O60356, 82 residues long (8 kDa), intact protein; also called full-length NUPR1; nuclear protein 1

Tests used:
[1] = biological target: T1, human importin α3 (Impα3) (Homo sapiens, UniProt O00629); experiment: ITC binding of NLS-NUPR1 peptides / NUPR1 to Impα3; details: for ΔH (binding enthalpy), Impα3: absolute error 0.5 kcal/mol; for −TΔS (entropic contribution), Impα3: calculated from Kd and ΔH, absolute error 0.7 kcal/mol
T1 construct: although the IBB region maintains its independence within the whole Impα3 in terms of conformation; His-tag (N); made in house; host or cells: Escherichia coli BL21 (DE3)
T1 sequence (O00629 1-521): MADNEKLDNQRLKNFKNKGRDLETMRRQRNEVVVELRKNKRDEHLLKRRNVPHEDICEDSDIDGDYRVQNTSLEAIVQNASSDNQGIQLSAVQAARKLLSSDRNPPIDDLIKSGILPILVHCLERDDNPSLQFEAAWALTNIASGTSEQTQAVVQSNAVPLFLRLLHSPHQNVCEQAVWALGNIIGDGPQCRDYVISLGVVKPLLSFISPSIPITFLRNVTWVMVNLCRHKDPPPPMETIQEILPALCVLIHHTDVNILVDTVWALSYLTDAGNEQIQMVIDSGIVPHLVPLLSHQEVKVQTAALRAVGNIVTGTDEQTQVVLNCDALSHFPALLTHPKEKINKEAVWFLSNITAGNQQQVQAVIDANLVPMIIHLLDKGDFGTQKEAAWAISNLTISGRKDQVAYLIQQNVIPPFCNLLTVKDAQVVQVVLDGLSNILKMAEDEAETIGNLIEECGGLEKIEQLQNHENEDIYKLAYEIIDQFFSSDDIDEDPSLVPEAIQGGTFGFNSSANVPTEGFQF
Description: (§1) The experimental set-up and data processing of ITC experiments has been described previously. Calorimetric titrations, performed in an Auto-iTC200 calorimeter (MicroCal, Malvern-Panalytical, Malvern, UK) consisted of series of 19 2-μL injections, with 150 s time spacing and a 750-rpm stirring speed. Impα3 or ΔImpα3 (at 10–20 μM) was loaded into the calorimetric cell and NLS-NUPR1 peptides in the syringe (150–300 μM); all solutions were prepared in buffer Tris 50 mM, pH 8. […] The binding affinity (association constant) and the binding enthalpy were estimated through a least-squares nonlinear regression data analysis, from which the Gibbs energy and the entropic contribution to the binding were calculated using well-known thermodynamic relationships. Since the binding stoichiometry is constrained by the model, the parameter n provides a fraction of the active or binding competent protein. Experiments for each peptide and importin species were performed, at least, in duplicates.

[2] = Translational diffusion by NMR DOSY (hydrodynamic properties); assay type: physicochemical; details: for D, translational diffusion coefficient: 283 K, pH 7.2, 50-mM deuterated Tris, 100% D2O, peptide 120 μM; for Rh, hydrodynamic radius from D: from the translational diffusion coefficient of dioxane (Rh = 2.12 Å) added to each sample
Description: Concentrations of peptides in all DOSY experiments were 120 μM, and 128 scans, where the gradient strength was varied, were acquired for each curve. Translational self-diffusion measurements were performed with the pulsed gradient spin-echo sequence in the presence of 100% D2O. Experimental details have been described elsewhere. Briefly, the gradient strength was varied in sixteen linear steps between 2% and 95% of the total power of the gradient coil. The gradient strength was previously calibrated by using the value of the translational diffusion coefficient, D, for the residual proton water line in a sample containing 100% D2O in a 5-mm tube [34]. In our experiments for each peptide, the duration of the gradient was 2.25 ms, the time between the two pulse gradients in the pulse sequence was set to 200 ms, and the recovery delay between the bipolar gradients was set to 100 μs. The methyl groups with signals between 1.0 and 0.80 ppm were used for integration. Fitting of the exponential curves obtained from experimental data was carried out with KaleidaGraph (Synergy Software, Version 3.5), as described. A final concentration of 1% of dioxane, which was assumed to have a hydrodynamic radius Rh = 2.12 Å [34], was added to the solutions of each of the peptides to have a comparison for estimating their sizes.

[3] = biological target: T2, ΔImpα3 (importin α3 without the IBB domain, residues 64-521) (Homo sapiens, UniProt O00629); experiment: ITC binding of NLS-NUPR1 peptides / NUPR1 to ΔImpα3; details: for ΔH (binding enthalpy), ΔImpα3: absolute error 0.5 kcal/mol; for −TΔS (entropic contribution), ΔImpα3: calculated from Kd and ΔH, absolute error 0.7 kcal/mol
T2 construct: The His-tagged ΔImpα3 (residues 64-521) was obtained from BL21 (DE3) cells as described; His-tag; made in house; host or cells: Escherichia coli BL21 (DE3)
T2 sequence (O00629 64-521): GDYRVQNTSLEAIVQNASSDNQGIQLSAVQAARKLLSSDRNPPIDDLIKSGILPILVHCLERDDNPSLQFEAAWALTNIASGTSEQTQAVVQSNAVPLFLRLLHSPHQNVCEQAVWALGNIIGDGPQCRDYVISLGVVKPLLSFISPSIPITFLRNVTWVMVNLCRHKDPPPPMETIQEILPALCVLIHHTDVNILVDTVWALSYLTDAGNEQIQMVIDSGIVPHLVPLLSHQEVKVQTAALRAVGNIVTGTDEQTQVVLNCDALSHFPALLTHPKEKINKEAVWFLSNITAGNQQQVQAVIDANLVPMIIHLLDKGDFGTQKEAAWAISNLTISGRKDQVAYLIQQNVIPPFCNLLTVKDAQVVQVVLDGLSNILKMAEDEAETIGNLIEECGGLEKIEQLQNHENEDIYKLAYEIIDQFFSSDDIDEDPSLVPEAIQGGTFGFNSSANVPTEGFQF
Description: as §1

[4] = biological target: T1, human importin α3 (Impα3); details: ITC, shown in Figure S4 for comparison; previously measured; read-out: Kd (dissociation constant) of intact NUPR1 for Impα3; cited from earlier work
Text: Furthermore, we tried to dissect the affinity of the NLS region of NUPR1 for Impα3 by using a “divide and conquer” approach with the peptides comprising the region. The interaction between full-length NUPR1 and its mutants with Impα3 and ΔImpα3 was the focus of this study, but instead, we emplo ... || In this work, we tried first to find out whether the theoretically predicted NLS region of NUPR1 was capable of binding in isolation to Impα3. Second, we tried to elucidate, for the first time, the molecular bases behind the binding of an NLS region of an IDP to an importin. […] These findings allow us to draw several conclusions. […] However, t ...

[5] = biological target: T3, truncated importin α3 without the IBB domain (residues 64-521) (human, UniProt O00629 64-521); experiment: ITC; intact NUPR1 with ΔImpα3; conditions of this titration are not told (Figure S4); details: both partners purified
T3 construct: human importin α3 (KPNA4) without the IBB domain, residues 64-521; also called ΔImpα3; ΔImportin
T3 sequence (looked up): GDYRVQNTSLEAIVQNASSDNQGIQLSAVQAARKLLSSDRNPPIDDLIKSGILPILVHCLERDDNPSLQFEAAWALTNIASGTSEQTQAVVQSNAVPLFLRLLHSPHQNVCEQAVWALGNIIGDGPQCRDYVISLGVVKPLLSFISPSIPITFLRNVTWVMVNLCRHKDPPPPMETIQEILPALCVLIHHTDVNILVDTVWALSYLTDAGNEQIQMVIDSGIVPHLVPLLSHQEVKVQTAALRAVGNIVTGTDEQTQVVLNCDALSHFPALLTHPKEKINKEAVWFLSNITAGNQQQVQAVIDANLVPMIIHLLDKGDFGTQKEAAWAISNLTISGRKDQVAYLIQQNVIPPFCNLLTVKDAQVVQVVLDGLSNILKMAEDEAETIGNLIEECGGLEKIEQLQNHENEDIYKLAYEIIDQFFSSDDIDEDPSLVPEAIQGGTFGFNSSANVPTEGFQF

| Molecule | ΔH (binding enthalpy), Impα3 ([1]; ITC, 298 K, Tris 50 mM pH 8) [kcal/mol] | −TΔS (entropic contribution), Impα3 ([1]; ITC, 298 K, Tris 50 mM pH 8) [kcal/mol] | D, translational diffusion coefficient [2] [cm^2 s^−1 × 10^6] | Rh, hydrodynamic radius from D [2] [Å] | ΔH (binding enthalpy), ΔImpα3 ([3]; ITC, 298 K, Tris 50 mM pH 8) [kcal/mol] | −TΔS (entropic contribution), ΔImpα3 ([3]; ITC, 298 K, Tris 50 mM pH 8) [kcal/mol] | Kd ([1]; ITC, 298 K, Tris 50 mM pH 8, importin 10–20 μM in cell, peptide 150–300 μM in syringe, 1:1 model, at least duplicates, relative error 30%, read-out: Kd (dissociation constant), Impα3) [nM] | Experimental binding free energy, Impα3 ([1]; from ITC, Table 2, 298 K) [kcal/mol] | Experimental binding free energy, ΔImpα3 ([3]; from ITC, Table 2, 298 K) [kcal/mol] | Kd [4] [nM] | Kd [5] [nM] | Kd ([3]; ITC, 298 K, Tris 50 mM pH 8, importin 10–20 μM in cell, peptide 150–300 μM in syringe, 1:1 model, at least duplicates, relative error 30%, read-out: Kd (dissociation constant), ΔImpα3) [nM] |
| --- | --- | --- | --- | --- | --- | --- | --- | --- | --- | --- | --- | --- |
| CC(=O)N[C@@H](Cc1ccc(O)cc1)C(=O)N[C@H](C(=O)N[C@@H](CC(N)=O)C(=O)N[C@@H](CCCNC(=N)N)C(=O)N1CCC[C@H]1C(=O)N[C@@H](CO)C(=O)N1CCC[C@H]1C(=O)NCC(=O)NCC(=O)N[C@@H](Cc1c[nH]cn1)C(=O)N[C@@H](CCC(=O)O)C(=O)N[C@@H](CCCNC(=N)N)C(=O)N[C@@H](CCCCN)C(=O)N[C@@H](CC(C)C)C(=O)N[C@H](C(=O)N[C@@H](CCC(=O)O)C(=O)N[C@@H](CCCCN)C(=O)N[C@@H](CC(C)C)C(=O)N[C@@H](CCC(N)=O)C(=O)N[C@@H](CC(N)=O)C(=O)N[C@@H](CO)C(=O)N[C@@H](CCC(=O)O)C(N)=O)C(C)C)[C@@H](C)O [T68E] (Ac-YTNRPSPGGHERKLVEKLQNSE-NH2) | -11.1 | 4.7 | 2.17 ± 0.06 | 10 ± 1 | -17.5 | 10.8 | – | – | – | – | – | – |
| CC(=O)N[C@@H](Cc1ccc(O)cc1)C(=O)N[C@H](C(=O)N[C@@H](CC(N)=O)C(=O)N[C@@H](CCCNC(=N)N)C(=O)N1CCC[C@H]1C(=O)N[C@@H](CO)C(=O)N1CCC[C@H]1C(=O)NCC(=O)NCC(=O)N[C@@H](Cc1c[nH]cn1)C(=O)N[C@@H](CCC(=O)O)C(=O)N[C@@H](CCCNC(=N)N)C(=O)N[C@@H](CCCCN)C(=O)N[C@@H](CC(C)C)C(=O)N[C@H](C(=O)N[C@H](C(=O)N[C@@H](CCCCN)C(=O)N[C@@H](CC(C)C)C(=O)N[C@@H](CCC(N)=O)C(=O)N[C@@H](CC(N)=O)C(=O)N[C@@H](CO)C(=O)N[C@@H](CCC(=O)O)C(N)=O)[C@@H](C)OP(=O)(O)O)C(C)C)[C@@H](C)O [pT68] (Ac-YTNRPSPGGHERKLV[pT]KLQNSE-NH2) | -14.8 | – | 1.89 ± 0.08 | 11 ± 1 | -28.2 | 22.0 | 27000 | – | – | – | – | – |
| CC(=O)N[C@@H](Cc1ccc(O)cc1)C(=O)N[C@H](C(=O)N[C@@H](CC(N)=O)C(=O)N[C@@H](CCCNC(=N)N)C(=O)N1CCC[C@H]1C(=O)N[C@@H](CO)C(=O)N1CCC[C@H]1C(=O)NCC(=O)NCC(=O)N[C@@H](Cc1c[nH]cn1)C(=O)N[C@@H](CCC(=O)O)C(=O)N[C@@H](CCCNC(=N)N)C(=O)N[C@@H](CCCCN)C(=O)N[C@@H](CC(C)C)C(=O)N[C@H](C(=O)N[C@H](C(=O)N[C@@H](CCCCN)C(=O)N[C@@H](CC(C)C)C(=O)N[C@@H](CCC(N)=O)C(=O)N[C@@H](CC(N)=O)C(=O)N[C@@H](CO)C(=O)N[C@@H](CCC(=O)O)C(N)=O)[C@@H](C)O)C(C)C)[C@@H](C)O [wt] (Ac-YTNRPSPGGHERKLVTKLQNSE-NH2) | 0.8 | -8.7 | 1.85 ± 0.04 | 11 ± 1 | -3.7 | -4.5 | – | -7.87 | -8.22 | – | – | – |
| B1 | – | – | – | – | – | – | – | – | – | 1400 | 400 | 440 |
